Experimental data published in patent US7348427B2, “Antipathogenic benzamide compounds” (Genesoft Pharmaceuticals, Inc., priority 2001, dated 2008).

Tests used:
[1] = test system: Bacillus cereus (ATCC 11778); assay: MIC, NCCLS broth microdilution assay; format: cell-based; conditions: A = B. cereus ATCC 11778
Method in brief: (§1)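 MICs were determined by broth microdilution following NCCLS documents M7-A4, M11-A4 and M27-T. The antifungal assay followed the method in the Manual of Clinical Microbiology (1995).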

[2] = test system: Staphylococcus aureus (ATCC 13709, a methicillin sensitive strain (MSSA)); assay: MIC, NCCLS broth microdilution assay; format: cell-based; conditions: E = S. aureus ATCC 13709
Method in brief: as §1

[3] = test system: Staphylococcus aureus (ATCC 27660, a methicillin resistant strain (MRSA)); assay: MIC, NCCLS broth microdilution assay; format: cell-based; conditions: F = S. aureus ATCC 27660
Method in brief: as §1

[4] = test system: Candida albicans (ATCC 38247); assay: Antifungal MIC assay; format: cell-based; conditions: B = C. albicans ATCC 38247
Method in brief: as §1

E. faecalis ATCC 29212 = assay: MIC, NCCLS broth microdilution assay; format: cell-based, Enterococcus faecalis; conditions: C = E. faecalis ATCC 29212
Method in brief: (§2)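 Broth microdilution per NCCLS M7-A4 (1997) guidelines; MIC recorded as minimal inhibitory concentration.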

S. pneumoniae ATCC 49619 = assay: MIC, NCCLS broth microdilution assay; format: cell-based, Streptococcus pneumoniae; conditions: H = S. pneumoniae ATCC 49619
Method in brief: as §2

SMILES	Minimum Inhibitory Concentration (MIC) [1]	Minimum Inhibitory Concentration (MIC) [2]	Minimum Inhibitory Concentration (MIC) [3]	Minimum Inhibitory Concentration (MIC) [4]	Minimum Inhibitory Concentration (MIC) (E. faecalis ATCC 29212)	Minimum Inhibitory Concentration (MIC) (S. pneumoniae ATCC 49619)
Cn1cc(NC(=O)c2cc(NC(=O)c3cc(NC(=O)c4ccc(Cl)c(Cl)c4)c[nH]3)cn2C)cc1C(=O)NCCN1CCOCC1 [Compound A-30]	+++ (+++ = MIC ≦ 4)	+++ (+++ = MIC ≦ 4)	+++ (+++ = MIC ≦ 4)	>32 µg/mL	+++ (+++ = MIC ≦ 4)	+++ (+++ = MIC ≦ 4)
CCN(CC)CCNC(=O)c1cc(NC(=O)c2cc(NC(=O)c3ccc(F)cc3F)cn2C)cn1C [Compound B-13]	+ (+ = 12 ≦ MIC ≦ 32)	++ (++ = 4 < MIC < 12)	+ (+ = 12 ≦ MIC ≦ 32)	>32 µg/mL	++ (++ = 4 < MIC < 12)	+++ (+++ = MIC ≦ 4)
Cn1cc(NC(=O)c2cc(NC(=O)c3ccccc3F)cn2C)cc1C(=O)NCCN1CCOCC1 [Compound B-43]	+ (+ = 12 ≦ MIC ≦ 32)	+ (+ = 12 ≦ MIC ≦ 32)	+ (+ = 12 ≦ MIC ≦ 32)	>32 µg/mL	+ (+ = 12 ≦ MIC ≦ 32)	+ (+ = 12 ≦ MIC ≦ 32)
Cn1cc(NC(=O)c2cc(NC(=O)c3ccc(Cl)cc3F)c[nH]2)cc1C(=O)Nc1cc(C(=O)NCCN2CCCCC2)n(CCN2CCCCC2)c1 [Compound D-14]	+++ (+++ = MIC ≦ 4)	+++ (+++ = MIC ≦ 4)	+++ (+++ = MIC ≦ 4)	>32 µg/mL	+++ (+++ = MIC ≦ 4)	+++ (+++ = MIC ≦ 4)
Cn1cc(NC(=O)c2cc(NC(=O)c3cc(NC(=O)c4ccc(F)cc4F)cn3C)cn2C)cc1C(=O)NCCN1CCNCC1 [Compound B-28]	+ (+ = 12 ≦ MIC ≦ 32)	+ (+ = 12 ≦ MIC ≦ 32)	+ (+ = 12 ≦ MIC ≦ 32)	>32 µg/mL	+ (+ = 12 ≦ MIC ≦ 32)	+++ (+++ = MIC ≦ 4)
COCn1cc(NC(=O)c2ccc(F)cc2F)cc1C(=O)Nc1cc(C(=O)Nc2cc(C(=O)NCCN3CCOCC3)n(C)c2)n(C)c1 [Compound C-7]	+ (+ = 12 ≦ MIC ≦ 32)	++ (++ = 4 < MIC < 12)	+ (+ = 12 ≦ MIC ≦ 32)	>32 µg/mL	+ (+ = 12 ≦ MIC ≦ 32)	+++ (+++ = MIC ≦ 4)
Cc1cc(NC(=O)c2cc(NC(=O)c3cc(NC(=O)c4ccc(F)cc4F)cn3C)cn2CCN2CCOCC2)sn1 [Compound D-1]	+++ (+++ = MIC ≦ 4)	+++ (+++ = MIC ≦ 4)	+++ (+++ = MIC ≦ 4)	>32 µg/mL	+++ (+++ = MIC ≦ 4)	+++ (+++ = MIC ≦ 4)
Cn1cc(NC(=O)c2cc(NC(=O)c3cc(NC(=O)c4ccc(F)cc4F)c[nH]3)cn2C)cc1C(=O)NCCCN1CCC(O)CC1 [Compound A-11]	+ (+ = 12 ≦ MIC ≦ 32)	++ (++ = 4 < MIC < 12)	+ (+ = 12 ≦ MIC ≦ 32)	+ (+ = 12 ≦ MIC ≦ 32)	+ (+ = 12 ≦ MIC ≦ 32)	+ (+ = 12 ≦ MIC ≦ 32)
